Results reported in patent US8765982B2, “Synergistic anticoagulant composition” (priority 2009, dated 2014).
Several values for one entry are separate records, joined by “and”; a condition that tells them apart may be missing. Equal entries are not always repeated.

What was measured:
clotting factor VII = experiment: Rat feeding study: level of active coagulation factor VII; type: in vivo, Sprague-Dawley rats; conditions: rats; for VII %: in feed
Description: (§1) Male, albino, Sprague-Dawley rats (n=100) weighing 150-175 g were placed in quarantine for 1 week and then housed in individual cages. To determine food consumption, rat chow in containers was weighed at the beginning and end of the day to determine the weight of the food consumed by each animal. The containers were modified to prevent spillage. Rats were provided with water ad libitum. The chow was composed of rolled oats, sugar and peanut oil (92:4:4) (w:w:w) plus a standard vitamin/mineral mix.
(§2) Administration of anticoagulant was accomplished by uniformly dispersing the compound in the peanut oil used in the chow. […] […] Actual concentration of the drug to be applied will be based on the average food consumption determined for the rats.
(§3) Groups of rats were established as follows for each UWEC-K compound:
(§4) • A. Diet (Negative) controls: no anticoagulant additive to food • B. Positive controls: food treated with warfarin at LD50 concentration for a rat weighing 180 g • C. Control to evaluate potentiation or diminution of warfarin effect. […] The groups will be repeated for each of the two compounds. Four animals in each group were anaesthetized at 96 hours, and exsanguinated by cardiac puncture. Prior to exsanguination each animal was anesthetized by the intraperitoneal injection of 50 mg/kg of sodium pentothal. Blood was collected in 3.2% citrate in pediatric tubes and tested for prothrombin time and active coagulation factors VII and X. Factor V will also be tested as a marker of potential hepatic toxicity. […] Animals were monitored twice daily and any animals found in apparent distress with be immediately sacrificed as above.

[1] = Rat feeding study: toxicity control (LDH, AST, ALT, Alkaline Phosphatase, creatinine in plasma and serum); conditions: rats, in feed
Description: as §1, §2, §3, §4

clotting factor X = experiment: Rat feeding study: level of active coagulation factor X; type: in vivo, Sprague-Dawley rats; conditions: rats; for X %: in feed
Description: as §1, §2, §3, §4

blood clotting [2] = experiment: Rat feeding study: overall effect on blood clotting and on the anticoagulant activity of warfarin; type: in vivo, Sprague-Dawley rats; conditions: rats; for effect on blood clotting time and levels of clotting factors, compound alone (in words): without warfarin, all three doses; for effect on the activity of warfarin (in words): 10 days of co-administration with warfarin
Description: The containers were modified to prevent spillage. Rats were provided with water ad libitum.
Thus diets were constructed at 0.1 mpk/d. 1 mpk/d and 10 mpk/d.
Control to evaluate potentiation or diminution of warfarin effect.

blood clotting [3] = experiment: Rat feeding study: prothrombin time; type: in vivo, Sprague-Dawley rats; design: Pro Time: unit not given beside the values; conditions: rats; for Pro Time: in feed
Description: as §1, §2, §3, §4

rat = conditions: for 5 days; cited from earlier work
blood clotting [4] = conditions: 0.25 mg/kg, rats of approximately 200 gm BW; cited from earlier work
[5] = 10 days, co-administered with warfarin

## CC(=O)Oc1c2c(c(OC(C)=O)c3ccccc13)[C@H]1C=C[C@@H]2C1 [UWEC-K1]
Clotting factor VII; 4 days, 0.025 mpk
  VII %: 346.75%
Clotting factor VII; 4 days, 0.25 mpk
  VII %: 351.33%
Clotting factor VII; 4 days, 2.5 mpk
  VII %: 370.75%
Clotting factor VII; 10 days, 0.025 mpk
  VII %: 364.00%
Clotting factor VII; 10 days, 0.25 mpk
  VII %: 304.67%
Clotting factor VII; 10 days, 2.5 mpk
  VII %: 286.83%
[1]; 4 days, 0.025 mpk
  ALT: 37.67
  AST: 121.00
  Alk Phos: 170.67
  Creat.: 0.15
  LDH: 1075.33
[1]; 4 days, 0.25 mpk
  ALT: 41.75
  AST: 152.75
  Alk Phos: 245.75
  Creat.: 0.10
  LDH: 1168.00
[1]; 4 days, 2.5 mpk
  ALT: 39.00
  AST: 125.67
  Alk Phos: 230.67
  Creat.: 0.10
  LDH: 1304.67
[1]; 10 days, 0.025 mpk
  ALT: 49.33
  AST: 134.67
  Alk Phos: 252.17
  Creat.: 0.13
  LDH: 1697.17
[1]; 10 days, 0.25 mpk
  ALT: 48.33
  AST: 121.33
  Alk Phos: 283.50
  Creat.: 0.15
  LDH: 1330.33
[1]; 10 days, 2.5 mpk
  ALT: 49.33
  AST: 124.67
  Alk Phos: 264.00
  Creat.: 0.15
  LDH: 1663.83
Clotting factor X; 4 days, 0.025 mpk
  X %: 74.50%
Clotting factor X; 4 days, 0.25 mpk
  X %: 65.33%
Clotting factor X; 4 days, 2.5 mpk
  X %: 64.25%
Clotting factor X; 10 days, 0.025 mpk
  X %: 68.00%
Clotting factor X; 10 days, 0.25 mpk
  X %: 61.17%
Clotting factor X; 10 days, 2.5 mpk
  X %: 61.00%
Blood clotting [2]; 4 days
  effect on blood clotting time and levels of clotting factors, compound alone (in words): do not differ significantly from control
Blood clotting [2]
  effect on the activity of warfarin (in words): significantly enhance the effect of warfarin
Blood clotting [2]; 10 days
  effect on blood clotting time and levels of clotting factors, compound alone (in words): do not differ significantly from control
Blood clotting [3]; 4 days, 0.025 mpk
  Pro Time: 11.18
Blood clotting [3]; 4 days, 0.25 mpk
  Pro Time: 11.60
Blood clotting [3]; 4 days, 2.5 mpk
  Pro Time: 11.78
Blood clotting [3]; 10 days, 0.025 mpk
  Pro Time: 11.37
Blood clotting [3]; 10 days, 0.25 mpk
  Pro Time: 11.72
Blood clotting [3]; 10 days, 2.5 mpk
  Pro Time: 11.63

## CC(=O)Oc1c2c(c(OC(C)=O)c3ccccc13)[C@@H]1C[C@H]2C2OC21 (stereo partly drawn) [UWEC-K2]
Clotting factor VII; [5]
  levels of Factor VII reduced by a factor compared to control: ~20
  levels of Factor VII reduced by a factor relative to warfarin alone: 3
Clotting factor VII; 4 days, 0.025 mpk
  VII %: 366.25%
Clotting factor VII; 4 days, 0.25 mpk
  VII %: 334.33%
Clotting factor VII; 4 days, 2.5 mpk
  VII %: 395.50%
Clotting factor VII; 10 days, 0.025 mpk
  VII %: 350.17%
Clotting factor VII; 10 days, 0.25 mpk
  VII %: 295.17%
Clotting factor VII; 10 days, 2.5 mpk, 2.5 mg/kg
  VII %: 325.33% and 286.83%
[1]; 4 days, 0.025 mpk
  ALT: 40.25
  AST: 104.75
  Alk Phos: 213.50
  Creat.: 0.10
  LDH: 758.75
[1]; 4 days, 0.25 mpk
  ALT: 45.00
  AST: 135.33
  Alk Phos: 240.33
  Creat.: 0.10
  LDH: 1496.33
[1]; 4 days, 2.5 mpk
  ALT: 35.50
  AST: 114.75
  Alk Phos: 217.25
  Creat.: 0.10
  LDH: 1026.50
[1]; 10 days, 0.025 mpk
  ALT: 48.17
  AST: 132.33
  Alk Phos: 241.67
  Creat.: 0.10
  LDH: 1552.33
[1]; 10 days, 0.25 mpk
  ALT: 47.50
  AST: 118.67
  Alk Phos: 274.17
  Creat.: 0.12
  LDH: 1445.50
[1]; 10 days, 2.5 mpk
  ALT: 48.50
  AST: 110.67
  Alk Phos: 264.17
  Creat.: 0.15
  LDH: 1234.50
Clotting factor X; [5]
  levels of Factor X reduced by a factor compared to control: ~20
  levels of Factor X reduced by a factor relative to warfarin alone: 4
Clotting factor X; 4 days, 0.025 mpk
  X %: 73.25%
Clotting factor X; 4 days, 0.25 mpk
  X %: 61.00%
Clotting factor X; 4 days, 2.5 mpk
  X %: 61.00%
Clotting factor X; 10 days, 0.025 mpk
  X %: 64.17%
Clotting factor X; 10 days, 0.25 mpk
  X %: 59.83%
Clotting factor X; 10 days, 2.5 mpk, 2.5 mg/kg
  X %: 63.33% and 61.00%
Blood clotting [2]; 4 days
  effect on blood clotting time and levels of clotting factors, compound alone (in words): do not differ significantly from control
Blood clotting [2]
  effect on the activity of warfarin (in words): significantly enhance the effect of warfarin
Blood clotting [2]; 10 days
  effect on blood clotting time and levels of clotting factors, compound alone (in words): do not differ significantly from control
Blood clotting [3]; [5]
  prothrombin clotting time increase compared to control: almost an order of magnitude
  prothrombin clotting time increased by a factor relative to warfarin alone: over 4
Blood clotting [3]; 4 days, 0.025 mpk
  Pro Time: 11.38
Blood clotting [3]; 4 days, 0.25 mpk
  Pro Time: 11.63
Blood clotting [3]; 4 days, 2.5 mpk
  Pro Time: 12.73
Blood clotting [3]; 10 days, 0.025 mpk
  Pro Time: 11.58
Blood clotting [3]; 10 days, 0.25 mpk
  Pro Time: 11.55
Blood clotting [3]; 10 days, 2.5 mpk, 2.5 mg/kg
  Pro Time: 11.57 and 11.63

## CC(=O)CC(c1ccccc1)c1c(O)c2ccccc2oc1=O (stereo not drawn) [Warfarin, warfarin, reference compound]
rat
  LD50: 1 mg/kg/day
Clotting factor VII; 4 days, 0.25 mpk
  VII %: 29.54%
Clotting factor VII; 10 days, 0.25 mpk
  VII %: 56.18%
[1]; 4 days, 0.25 mpk
  ALT: 46.00
  AST: 123.25
  Alk Phos: 242.30
  Creat.: 0.11
  LDH: 1168.88
[1]; 10 days, 0.25 mpk
  ALT: 48.09
  AST: 91.82
  Alk Phos: 249.73
  Creat.: 0.15
  LDH: 626.18
Clotting factor X; 4 days, 0.25 mpk
  X %: 10.00%
Clotting factor X; 10 days, 0.25 mpk
  X %: 14.85%
Blood clotting [4]
  INR maintained: 2.6
Blood clotting [3]; 4 days, 0.25 mpk
  Pro Time: 36.98
Blood clotting [3]; 10 days, 0.25 mpk
  Pro Time: 24.38
